In ChEMBL document CHEMBL1152731, “Design, synthesis, and anti-HIV activity of 4'-modified carbocyclic nucleoside phosphonate reverse transcriptase inhibitors” (Bioorg Med Chem, 2009):

Assays:
[1] = Cytotoxicity against human MT2 cells after 5 days; format: cell-based
[2] = system: Human immunodeficiency virus 1; assay: Antiviral activity against HIV1 3a with reverse transcriptase M184V mutation in human MT2 cells assessed as inhibition of viral-induced cytopathic effect by XTT assay relative to wild type; format: functional
[3] = system: Human immunodeficiency virus 1; assay: Antiviral activity against HIV1 3a with reverse transcriptase K65R mutation in human MT2 cells assessed as inhibition of viral-induced cytopathic effect by XTT assay relative to wild type; format: functional
[4] = system: Human immunodeficiency virus 1; assay: Antiviral activity against HIV1 3a infected human MT2 cells assessed as inhibition of viral-induced cytopathic effect after 3 days by XTT assay; format: functional, organism-based; settings: Human immunodeficiency virus 1, 3a, MT2, 72 h
[5] = target: Human immunodeficiency virus type 1 reverse transcriptase (Human immunodeficiency virus 1, UniProt Q72547); assay: Inhibition on HIV1 reverse transcriptase p66/p51

SMILES	CC50 at 120 h [1] [µM]	fold change (FC) [2]	fold change (FC) [3]	EC50 [4] [µM]	IC50 [5] [µM]
Nc1ncnc2c1ncn2[C@H]1C=C[C@@H](OCP(=O)(O)O)O1	> 1000	2.9	2.9	–	–
Nc1ncnc2c1ncn2[C@H]1C=C[C@@H](OCP(=O)(O)O)C1	–	–	–	52	–
C[C@@]1(OCP(=O)(O)O)C=C[C@H](n2cnc3c(N)ncnc32)C1	–	–	–	244	–
C=C[C@@]1(OCP(=O)(O)OP(=O)(O)OP(=O)(O)O)C=C[C@H](n2cnc3c(N)ncnc32)C1	–	–	–	–	0.62
C#C[C@@]1(OCP(=O)(O)O)C=C[C@H](n2cnc3c(N)ncnc32)C1	1450	>30	2.2	16	0.13
Nc1nc(NC2CC2)c2ncn([C@H]3C=C[C@@H](CO)C3)c2n1 [ABACAVIR]	–	7.1	3.8	0.32	0.13
Nc1ncnc2c1ncn2[C@@H]1O[C@H](OCP(=O)(O)O)C=C1F [GS-9148]	> 1000	0.8	1.1	–	–
C[C@H](Cn1cnc2c(N)ncnc21)OCP(=O)(O)O [TENOFOVIR ANHYDROUS]	> 1000	0.7	4.3	–	–
Cc1cn([C@H]2C[C@H](N=[N+]=[N-])[C@@H](CO)O2)c(=O)[nH]c1=O [ZIDOVUDINE]	> 200	0.7	1.2	–	–
